Results reported in patent US20080071190A1, “Timing of Ovulation Based on Vaginal Ph” (priority 2004, published 2008).

Legend:
[1] = system: hECE cells (Human Ectocervical-Vaginal Epithelial Cells); test: Determinations of extracellular pH (pHo) in luminal and contra-luminal solutions of hECE cells cultured on filters; type: cell-based
Protocol: Referring to FIG. 4A, hECE cells or Human Endocervical Cells were plated on Anocell filters (Anocel™-10, Oxon, UK, obtained through Sigma Chemicals, St. Louis, Mo.), which are ceramic-base filters, pore size of 0.02 μm width, 50 μm depth, and surface area of 0.6 cm^2. Filters 300 and 302 were coated with 4 μg/cm^2 collagen type IV and incubated at 37° C. overnight. The remaining collagen solution was aspirated and the filter was dried at 37° C. Before plating, filters 300 were rinsed 3 times with Hanks' Balanced Salt Solution. Cells were plated either on the upper surface 302 of one filter 300 (for determinations of luminal pHo) or on the bottom surface 304 of the other filter 300 (for determinations of the contra-luminal pHo) at 3·10^5 cells/cm^2. By plating at this relatively high density the cultures became confluent within 12 hours after plating.
Plates containing the filters were placed in a tissue culture incubator (37° C.), and pHo changes in the luminal and contra-luminal solutions were determined using AMANI-1000 microcombination pH electrodes 306 (Harvard Apparatus, Holliston, Mass., obtained through Genomics Solutions, Ann Harbor, Mich.). The AMANI-1000 pH sensor (stored in pH 7.0) is based on metal-metal oxide pH measurements and the pH sensitive layer is immobilized on plastic. The reference electrode employs an Ag/AgCl in 3.4 M KCl reference electrode, and the reference electrode junction is leak-free ensuring no leaks of KCl out of the reference electrode. The design of the pH electrodes 306 enabled their use for the purpose of the present experiments: tip diameter of 1 mm, depth of immersion 1 mm, and response time of less than 5 sec.
Electrodes 306 attached to a stand were held stable with the tip immersed in the solution within the upper compartment of the filter to a depth of about 2 mm avoiding direct contact between the electrode tip and the cultured cells. The electrodes were connected directly to a pH meter 310 (e.g., Accumet pH meter 910) (Fisher Scientific, Suwanee Ga.). After stabilization, the luminal and contraluminal solutions were gently aspirated using glass pipette, and replaced with fresh warmed (37° C.) Basic Salt Solution containing (in mM) NaCl (140), KCl (5), MgCl2 (1), CaCl2 (1), glucose (10), and 0.1% bovine serum albumin, pH 7.4. The volumes in the luminal and contraluminal compartments were 150 μl and 500 μl, respectively. Determinations of changes in pHo were made at time 0, and at 5 min intervals thereafter for up to 30 min.
To remove intracellular estrogens cells were grown in steroid-free medium as described. This procedure involved shifting cells on filters for three days prior to pHo assays to a medium composed of phenol-red-deficient (DMEM)/Ham's F12 or (Sigma Chemicals, St. Louis, Mo.) containing 8% heat inactivated fetal bovine serum that was previously treated with charcoal to remove steroids. Preparation of charcoal-treated serum was described; briefly, dextran-coated charcoal (Sigma Chemicals, St. Louis, Mo.) was dissolved at 8% in 0.15 M NaCl, autoclaved, mixed by stirring, spun and the pellet was resuspended as 1 gm/1.25 ml in H2O. Fetal bovine serum (Hyclone, Logan, Utah) was mixed with the activated charcoal-dextran at 20:1 (Vol:Vol) and incubated for 45 min at 55° C. At the completion of incubation the mixture was spun twice at 800 g for 20 min and the supernatant (serum) was decanted and collected. For experiments, cells were shifted to steroid-free medium for 3 days; alternatively, cells were shifted to the steroid-free medium for 24 hrs and treated with 17β-estradiol for two additional days.

[2] = system: Human Endocervical Cells; test: Determinations of extracellular pH (pHo) in luminal and contra-luminal solutions of Human Endocervical Cells cultured on filters; type: cell-based; settings: steroid-free medium and treatment with 10 nM estradiol, no effect
Protocol: Primary cultures of Human Endocervical Cells were obtained through Clonetics (Walkersville, Md.). Cells chosen for experiments were those obtained from tissues of two women reported as HPV negative, and the cultured Endocervical Cells were tested for mycoplasma. Primary Endocervical cultures were grown and subcultured into second passage using Clonetics proprietary Endocervical Medium (supplied with the cells), and thereafter maintained in hECE culture medium. Cells were characterized as epithelial cells based on typical morphology of a monolayered epithelium; the expression of involucrin; lack of expression of vimentin; and expression of tight junctions (not shown). […] The cells were defined as phenotypically endocervical (in contrast to ectocervical/vaginal) based on expression of apical villi, the abundant expression of cytokeratins 18/19, and minimal expression of cytokeratins 4/5 and 13. Both hECE cells and the Human Endocervical Cells (not shown) expressed functional estrogen receptors. […]
Plates containing the filters were placed in a tissue culture incubator (37° C.), and pHo changes in the luminal and contra-luminal solutions were determined using AMANI-1000 microcombination pH electrodes 306 (Harvard Apparatus, Holliston, Mass., obtained through Genomics Solutions, Ann Harbor, Mich.). […]

[3] = system: hECE cells; test: Cell-vitality staining (MTT assay); type: cell-based, human; settings: Steroid-Free Medium + substance, means ±SD, 3 to 4 repeats
Protocol: Cell-vitality staining was done using the 3-[4,5-dimethylthiazol-2-yl]-2,5-diphenyl tetrazolium bromide (MTT) assay. MTT serves as a substrate for mitochondrial dehydrogenases, and only viable functional mitochondria are capable of cleaving MTT to generate the colored product formazan. MTT solution was prepared by dissolving MTT at a concentration of 5 mg/ml in phosphate-buffered saline (PBS) composed of (mM) NaCl (137), KCl (2.68), Na2HPO4 (10), KH2PO4 (1.76), pH 7.4, and filtering the solution through Millipore filter. Following treatments/assays, cells on filters were washed with fresh and warm (37° C.) PBS and incubated for 60 min at 37° C. in MTT solution. At the completion of incubation, cells were washed with PBS, and solubilized in isopropanol containing 0.1 M HCl plus 1% Triton X-100. Lysates were mixed by pipetting to dissolve the reduced MTT crystals (during which time the colorless solution turned purple) and were spinned at 10,000 g for 5 min. The solubilized formazan was measured by determining absorption at 570 nm. Background absorbance at 690 nm was subtracted for each sample, and values were normalized to OD570 (optic density) of control unperturbed cells.

- EC50 ([1]; Homo sapiens, Epithelial cell, hECE cells grown in steroid-free medium, dose response FIG. 8B, read-out: EC50 of decrease in luminal pHo): ~0.5 nM
- hECE cell vitality (MTT staining normalized to OD570 of control unperturbed cells), Baseline ([3]; Baseline): 96 ± 3%
- hECE cell vitality (MTT staining normalized to OD570 of control unperturbed cells), 30 min pHo ([3]; after 30 min pHo measurement): 94 ± 4%
SMILES: C[C@]12CC[C@@H]3c4ccc(O)cc4CC[C@H]3[C@@H]1CC[C@@H]2O [17β-estradiol]
- luminal pHo ([1]; hECE cells in steroid-free medium treated with 10 nM 17β-estradiol for two days, 30 min, steroid-free medium alone 7.11±0.02): 7.03±0.02
- luminal pHo ([1]; hECE cells in steroid-free medium, 0.1 nM 17β-estradiol, decreased from 7.26±0.03): 7.13±0.03
- effect on luminal pHo (dose response) ([1]; hECE cells in steroid-free medium, 1 nM): reached near saturation
- effect on luminal pHo (dose response) ([1]; hECE cells in steroid-free medium, 100 nM): no additional effect
- contra-luminal pHo ([1]; hECE cells, steroid-free medium and treatment with 10 nM estradiol, no effect): around 7.25
- contra-luminal pHo or luminal pHo [2]: around 7.25
